Assay results taken from patent publication US8552018B2, “Substituted tricyclic compounds as protein kinase inhibitors” (Arizona Board of Regents on behalf of the University of …, priority 2003, dated 2013).

Columns and labels:
[1] = tested on: Panc-1 pancreatic cancer cells; experiment: Apoptosis assay (Annexin V or TUNEL); assay type: cell-based; conditions: Panc1, 10 μM
Experimental: (§1) Induction of apoptosis in cancer cells is a common mechanism of action for anti-cancer agents. To determine the role of MP470 in apoptosis, tumor cells were incubated with either compound and analyzed for apoptosis using Annexin V or TUNEL assays. […] In MiaPaCa-2 cells, MP470 at […] induced 81.4% apoptosis, while at 1 μM it induced 71% apoptosis. In Panc1 cells, MP470 at 10 μM induced over a 3-fold increase in apoptotic cells compared with non-treated cells.

[2] = tested on: MiaPaCa-2 pancreatic cancer cells; experiment: Apoptosis assay (Annexin V or TUNEL); assay type: cell-based
Experimental: as §1

[3] = tested on: LNCaP tumors; experiment: Xenograft study; assay type: in vivo, mice; conditions: MP-470/Tarceva® in combination, 18 days treatment, FIG. 35
Experimental: A xenograft study was carried out in order to evaluate the combined effects of MP-470 (Compound III-1-3) and Tarceva® in vivo. LNCaP cells were injected into immunocompromised mice and allowed to develop into measurable tumors, at which point treatment was initiated. Mice were allocated to one of four groups and treated with vehicle, MP-470 (referred to in FIG. 35 as HPK56), Tarceva®, or MP-470/Tarceva® in combination, as indicated. […] The results of these studies are shown in graphical form in FIG. 35.

[4] = tested on: general tyrosine phosphorylation in NIH 3T3 cells; experiment: Immunoblot for phosphotyrosine; assay type: cell-based
Experimental: MP-470 (Compound III-1-3) has inhibitory effects on a number of receptor tyrosine kinases. In order to evaluate these effects at the cellular level, immunoblot analysis was performed on lysates from cells treated with MP470, with or without the addition of the EGFR inhibitor Tarceva®. Lysates were assayed for general tyrosine kinase activity, as well as the specific phosphorylation of c-Met and Akt. Briefly, NIH 3T3 cells were pretreated with drugs as indicated for 4 hours, then treated with pervanadate for a further 30 minutes. Immunoblot detection was carried out with antibodies for phosphotyrosine, phospho-Met and phospho-Akt (S473), as well as total c-Met and Akt. Beta-actin was used as a loading control.

[5] = tested on: Rad51 in SF-767 cancer cells; experiment: Western blotting for Rad51 after IR; assay type: cell-based; conditions: SF-767 cells pretreated with MP470
[6] = molecular target: PDGFRα(D842V)(h) (Homo sapiens, UniProt P16234, D842V); experiment: Kinase profile screen; assay type: biochemical; conditions: 1 uM
Sequence of PDGFRα(D842V)(h) (P16234 24-1089 D842V): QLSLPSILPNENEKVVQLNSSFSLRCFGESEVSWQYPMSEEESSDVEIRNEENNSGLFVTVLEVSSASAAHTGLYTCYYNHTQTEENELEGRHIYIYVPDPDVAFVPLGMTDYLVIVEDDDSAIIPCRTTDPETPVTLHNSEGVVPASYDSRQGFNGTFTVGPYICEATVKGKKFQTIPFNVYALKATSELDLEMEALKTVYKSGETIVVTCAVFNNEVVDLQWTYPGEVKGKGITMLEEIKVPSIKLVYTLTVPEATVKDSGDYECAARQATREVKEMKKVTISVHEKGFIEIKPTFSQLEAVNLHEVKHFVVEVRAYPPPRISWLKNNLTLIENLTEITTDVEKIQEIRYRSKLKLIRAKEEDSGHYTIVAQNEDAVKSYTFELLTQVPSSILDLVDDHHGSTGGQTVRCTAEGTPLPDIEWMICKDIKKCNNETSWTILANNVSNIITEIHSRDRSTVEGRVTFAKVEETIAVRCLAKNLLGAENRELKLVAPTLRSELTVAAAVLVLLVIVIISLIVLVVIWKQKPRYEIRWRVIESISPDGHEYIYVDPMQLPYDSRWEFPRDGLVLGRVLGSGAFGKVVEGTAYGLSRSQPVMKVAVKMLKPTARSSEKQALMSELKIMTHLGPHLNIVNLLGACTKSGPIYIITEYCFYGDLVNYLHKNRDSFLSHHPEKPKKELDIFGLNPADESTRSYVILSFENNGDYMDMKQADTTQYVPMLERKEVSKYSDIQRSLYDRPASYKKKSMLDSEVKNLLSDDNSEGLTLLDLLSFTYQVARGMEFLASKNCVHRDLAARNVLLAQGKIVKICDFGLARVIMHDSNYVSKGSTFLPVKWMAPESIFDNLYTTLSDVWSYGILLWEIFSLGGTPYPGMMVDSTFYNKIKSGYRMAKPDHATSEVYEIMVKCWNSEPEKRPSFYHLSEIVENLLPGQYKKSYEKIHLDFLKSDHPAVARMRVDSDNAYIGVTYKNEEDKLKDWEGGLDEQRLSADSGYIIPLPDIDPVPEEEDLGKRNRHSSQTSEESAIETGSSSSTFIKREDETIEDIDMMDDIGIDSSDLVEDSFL
Experimental: In order to determine the specificity and potential alternative targets for MP470, kinase profile screen were performed utilizing the KinaseProfiler™ Screen (Upstate Corp) and Select Screen™ kinase profiling (Invitrogen). Between the two screens, 53 different kinases were tested, representing a broad proportion of the human kinome. MP470 was screened at a concentration of 1 μM against both wildtype and mutant kinases.

[7] = tested on: LNCaP prostate carcinoma cells; experiment: Apoptosis assays (morphology, PARP cleavage immunoblot); assay type: cell-based; conditions: 48 hours
Experimental: Induction of apoptosis by MP-470 (Compound III-1-3) was further evaluated in LNCaP prostate carcinoma cells using three different assays. First, cells were treated with MP-470 at a variety of concentrations, with or without addition of Tarceva® (erlotinib) for 48 hours. Cells were then examined for the morphological characteristics of apoptosis (membrane blebbing, nuclear fragmentation, etc.) and scored according to a binary scale (apoptotic versus non-apoptotic).
As a more quantifiable means of determining apoptosis induction, cells were also lysed and total protein was used in an immunoblot assay for poly-[ADP ribose] polymerase (PARP) cleavage, a hallmark of apoptosis.

[8] = molecular target: c-Kit (Homo sapiens, UniProt P10721); experiment: c-kit kinase inhibitory activity (stated in Example 32); assay type: biochemical
Sequence of c-Kit (P10721 26-976): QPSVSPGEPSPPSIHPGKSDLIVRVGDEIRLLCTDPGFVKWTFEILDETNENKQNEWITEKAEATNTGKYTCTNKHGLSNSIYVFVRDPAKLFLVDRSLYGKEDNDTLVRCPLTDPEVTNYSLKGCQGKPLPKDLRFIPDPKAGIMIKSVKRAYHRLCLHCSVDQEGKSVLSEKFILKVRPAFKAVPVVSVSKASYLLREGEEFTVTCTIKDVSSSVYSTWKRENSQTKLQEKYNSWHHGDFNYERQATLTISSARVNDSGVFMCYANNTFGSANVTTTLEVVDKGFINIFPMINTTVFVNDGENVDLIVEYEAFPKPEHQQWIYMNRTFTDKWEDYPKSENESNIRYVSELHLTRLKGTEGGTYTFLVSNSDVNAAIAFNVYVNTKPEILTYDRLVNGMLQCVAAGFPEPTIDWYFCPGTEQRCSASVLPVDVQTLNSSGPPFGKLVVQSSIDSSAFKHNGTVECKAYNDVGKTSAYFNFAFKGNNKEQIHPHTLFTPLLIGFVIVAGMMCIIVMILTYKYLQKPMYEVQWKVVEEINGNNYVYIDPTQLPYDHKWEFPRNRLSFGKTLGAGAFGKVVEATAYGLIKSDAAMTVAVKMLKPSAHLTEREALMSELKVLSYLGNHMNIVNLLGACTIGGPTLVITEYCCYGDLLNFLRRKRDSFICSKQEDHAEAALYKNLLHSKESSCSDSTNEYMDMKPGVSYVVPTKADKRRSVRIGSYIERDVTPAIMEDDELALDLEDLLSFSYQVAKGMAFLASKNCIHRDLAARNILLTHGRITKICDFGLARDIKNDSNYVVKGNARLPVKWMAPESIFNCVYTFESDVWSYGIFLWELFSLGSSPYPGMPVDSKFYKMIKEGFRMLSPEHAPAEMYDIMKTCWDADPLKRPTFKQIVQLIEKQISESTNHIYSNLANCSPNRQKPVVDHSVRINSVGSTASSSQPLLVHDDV

[9] = molecular target: MKK6 (Homo sapiens, UniProt P52564); experiment: Kinase-Glo Luminescent Kinase Assay (Examples 27, 33); assay type: biochemical
Sequence of MKK6 (P52564 whole entry, species assumed): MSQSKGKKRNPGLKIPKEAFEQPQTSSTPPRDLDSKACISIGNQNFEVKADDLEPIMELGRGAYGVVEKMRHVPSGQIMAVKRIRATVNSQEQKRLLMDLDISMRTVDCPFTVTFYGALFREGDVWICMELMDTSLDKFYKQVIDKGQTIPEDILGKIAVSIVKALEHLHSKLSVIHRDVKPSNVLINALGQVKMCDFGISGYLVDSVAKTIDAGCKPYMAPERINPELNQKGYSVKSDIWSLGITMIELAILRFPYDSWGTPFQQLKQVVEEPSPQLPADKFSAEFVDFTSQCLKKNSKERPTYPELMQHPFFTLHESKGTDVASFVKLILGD
Experimental: (§2) The following conditions were used:
(§3) The protein serine-threonine kinases cAMP PK, MKK6 and Cdk1 were tested alongside Aurora-2 kinase to evaluate the activity of compound (II-2-6) against these protein kinases. Briefly, in this assay kinase activity is determined by quantifying the amount of ATP remaining in solution following the kinase reaction by measuring the relative light units (RLU) produced by luciferase using a luminometer. Percent activity was determined for individual compounds by comparing luminometer readings of drug-treated reactions to controls containing no drug (RLUNo Inhib) and no Aurora-2 enzyme (RLUNo Kinase) in the following equation: […]

[10] = molecular target: CDK1 (Homo sapiens, UniProt P06493); experiment: as above; assay type: biochemical
Sequence of CDK1 (P06493 whole entry, species assumed): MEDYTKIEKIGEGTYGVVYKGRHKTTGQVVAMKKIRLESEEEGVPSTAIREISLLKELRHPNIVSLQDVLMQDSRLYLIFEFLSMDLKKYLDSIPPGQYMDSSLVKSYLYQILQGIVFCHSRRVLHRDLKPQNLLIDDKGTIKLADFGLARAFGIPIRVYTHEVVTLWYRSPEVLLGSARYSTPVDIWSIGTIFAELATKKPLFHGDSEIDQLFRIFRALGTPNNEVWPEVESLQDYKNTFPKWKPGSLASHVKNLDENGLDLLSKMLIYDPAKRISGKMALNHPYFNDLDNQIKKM
Sequence of CDK1 (P14635 whole entry partner, species assumed): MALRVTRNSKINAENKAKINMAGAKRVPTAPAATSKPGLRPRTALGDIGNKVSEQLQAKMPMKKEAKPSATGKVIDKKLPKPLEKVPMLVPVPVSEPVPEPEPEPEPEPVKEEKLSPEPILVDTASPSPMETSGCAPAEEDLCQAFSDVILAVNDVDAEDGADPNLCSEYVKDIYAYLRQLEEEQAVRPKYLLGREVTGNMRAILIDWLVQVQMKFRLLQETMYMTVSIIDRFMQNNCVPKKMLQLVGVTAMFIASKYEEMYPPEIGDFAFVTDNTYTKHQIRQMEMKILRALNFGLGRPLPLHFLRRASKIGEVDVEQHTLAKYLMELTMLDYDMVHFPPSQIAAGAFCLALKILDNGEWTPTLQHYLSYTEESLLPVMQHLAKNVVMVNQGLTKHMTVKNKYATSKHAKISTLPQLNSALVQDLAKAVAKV
Experimental: as §2, §3

[11] = molecular target: cAMP-PK (Homo sapiens, UniProt P17612); experiment: as above; assay type: biochemical
Experimental: as §2, §3

[12] = molecular target: Aurora-A (Homo sapiens, UniProt O14965); conditions: 0.1 μM ATP, 30 μM Kemptide
Sequence of Aurora-A (O14965 whole entry): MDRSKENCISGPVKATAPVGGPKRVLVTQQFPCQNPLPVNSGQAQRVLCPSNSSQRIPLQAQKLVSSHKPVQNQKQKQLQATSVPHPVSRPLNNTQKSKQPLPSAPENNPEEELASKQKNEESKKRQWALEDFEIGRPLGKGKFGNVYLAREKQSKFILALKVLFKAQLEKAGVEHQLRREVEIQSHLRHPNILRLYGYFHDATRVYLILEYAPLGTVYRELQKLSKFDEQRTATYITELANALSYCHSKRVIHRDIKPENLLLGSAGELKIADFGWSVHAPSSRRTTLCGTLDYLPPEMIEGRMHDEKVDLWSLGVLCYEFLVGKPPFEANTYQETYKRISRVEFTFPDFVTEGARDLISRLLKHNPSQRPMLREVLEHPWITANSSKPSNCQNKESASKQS
Experimental: [drawing 74] enzyme assays were performed using the Kinase-Glo™ Luminescent Kinase Assay from Promega Corporation (Madison, Wis.). The following conditions were used: [table] Enzymatic reactions were allowed to progress for 2 hours at 30° C., then assayed for kinase activity according to manufacturer protocol.

Row | Compound | increase in apoptotic cells compared with non-treated cells [1] [fold] | apoptosis ([2]; MiaPaCa-2, 1 μM) [%] | apoptosis ([2]; MiaPaCa-2, 100 μM) [%] | tumor growth [3] | general tyrosine phosphorylation [4] | Rad51 protein levels after exposure to IR [5] | activity against mutant kinase [6] | apoptosis induction ([7]; MP-470 alone) | apoptosis induction ([7]; MP-470 in the presence of erlotinib) | inhibitory activity against c-kit kinase (in words) [8] | IC50 ([9]; MKK6, 0.1 μM ATP, 30 μM Kemptide) [µM] | kinase inhibitory activity (in words) ([9]; MKK6, FIG. 27) | IC50 ([10]; CDK1, 0.1 μM ATP, 30 μM Kemptide) [µM] | kinase inhibitory activity (in words) ([10]; Cdk1, FIG. 27) | kinase inhibitory activity (in words) ([11]; cAMP PK, FIG. 27) | IC50 ([11]; cAMP-PK, 0.1 μM ATP, 30 μM Kemptide) [µM] | IC50 [12] [nM]
1 | S=C(NCc1ccc2c(c1)OCO2)N1CCN(c2ncnc3c2oc2ccccc23)CC1 [HPK56, 4-Benzo[4,5]furo[3,2-d]pyrimidin-4-yl-piperazine-1-carbothioic acid (benzo[1,3]dioxol-5-ylmethyl)-amide] | > 3 | 71 | 81.4 | slowed tumor growth to nearly zero | reduced | remained low and near control level | activity | dose-dependent increase in apoptosis | enhanced | – | – | – | – | – | – | – | –
2 | COc1cc2[nH]c3ncnc(N4CCN(C(=S)Nc5ccc(S(=O)(=O)Nc6ncccn6)cc5)CC4)c3c2cc1OC [HPK62, 4-(6,7-Dimethoxy-9H-1,3,9-triaza-fluoren-4-yl)-piperazine-1-carbothioic acid [4-(pyrimidin-2-ylsulfamoyl)-phenyl]-amide] | – | – | – | – | – | – | – | – | – | low μM | 6.2 | inhibitory activity | 22.3 | inhibitory activity | inhibitory activity | > 100 | 900
